In US11878049B1, “Mitapivat therapy and modulators of cytochrome P450” (Agios Pharmaceuticals, Inc., priority 2019, dated 2024):

Tests used:
[1] = Drug-drug interaction study Part 2: plasma PK after 50 mg mitapivat sulfate alone or with rifampin; format: in vivo, human; details: for Nominal time of peak arithmetic mean concentration: postdose; for Nominal time of peak arithmetic mean concentration / AUC(0-inf) / AUC(0-t) / Cmax: plasma; for Total exposure in the presence of rifampin compared to dosing of mitapivat sulfate alone: 50 mg mitapivat sulfate, 600 mg rifampin; for AUC(0-inf) / AUC(0-t) / Cmax: both sexes, human, healthy subjects; for AUC(0-inf): read-out: AUC0-inf, Geometric LSM; for AUC(0-t): read-out: AUC0-t, Geometric LSM; for Cmax: read-out: Cmax, Geometric LSM
Description: (§1) Twenty-eight (28) healthy, adult male and female (non-childbearing potential) subjects were enrolled in the study in total; 14 subjects in each study part (Parts 1 and 2). A minimum of 8 female subjects were enrolled in the study (i.e., a minimum of 4 female subjects per study part). Each subject participated in either Part 1 or Part 2, but not both.
On Day 1 of Treatment Period 1, a single oral dose of 50 mg mitapivat sulfate was administered. Serial blood samples for plasma assay of mitapivat and the Metabolite concentrations were collected from predose to 120 hours following administration of mitapivat sulfate. In Treatment Period 2, an oral dose of 600 mg rifampin was administered QD for 12 consecutive days (Day 1 through Day 12 of Treatment Period 2) with a single oral dose of 50 mg mitapivat sulfate coadministered on Day 8. Serial blood samples for plasma assay of mitapivat sulfate and the Metabolite concentrations were collected from predose to 120 hours following coadministration of mitapivat and rifampin on Day 8.
In Part 2, study drugs were administered with approximately 240 mL of water on all dosing days including the coadministration of mitapivat sulfate and rifampin on Day 8 of Treatment Period 2. Mitapivat sulfate and rifampin was administered following an overnight fast of at least 10 hours on Day 1 of Treatment Period 1 (mitapivat sulfate only) and Day 8 of Treatment Period 2 (both mitapivat sulfate and rifampin) and subjects remained fasted for 4 hours after dosing. On all other dosing days, rifampin was administered following a predose fast of at least 4 hours and subjects remained fasted for at least 2 hours after dosing. There was a washout period of 7 days between the mitapivat sulfate dose in Treatment Period 1 and the first itraconazole (Part 1) or rifampin (Part 2) dose in Treatment Period 2. All study drugs were consumed within 5 minutes for both Part 1 and Part 2.
Mitapivat sulfate (50 mg tablets) administered along with Rifampin (also referred to as Rifadin®, 300 mg capsules) is considered as the test arm in this study. Mitapivat sulfate (50 mg tablets) administered alone is considered as the reference arm in this study.
In Period 1, a single oral dose of 50 mg mitapivat sulfate was administered orally. In Period 2, subjects were administered 600 mg rifampin (2×300 mg capsules) QD on Day 1 to Day 12 inclusive, with 50 mg mitapivat sulfate (1×50 mg tablet) coadministered on Day 8. Study drugs were administered with approximately 240 mL of water on all dosing days including the coadministration of mitapivat sulfate and rifampin on Day 8 of Period 2.
(§2) In Parts 1 and 2, for mitapivat and the Metabolite, blood samples were obtained for all subjects to determine the plasma concentrations of mitapivat, and the Metabolite, before mitapivat sulfate dosing (0 hour) on Day 1 of Period 1 (Parts 1 and 2) and Day 5 (Part 1) or Day 8 (Part 2) of Period 2 at 0.5, 1, 1.5, 2, 3, 4, 5, 6, 8, 12, 16, 24, 48, 72, 96, and 120 hours postdose. Plasma concentrations of mitapivat and the Metabolite were determined using methods validated with respect to accuracy, precision, linearity, sensitivity, and specificity, with a lower limit of quantitation (LLOQ) of 0.5 ng/mL for both analytes. A noncompartmental PK approach was used to analyze individual plasma mitapivat and the Metabolite concentration time data (using Phoenix® WinNonlin® Version 7.0). The following PK parameters were calculated: AUC0-t, AUC0-inf, AUC0-24, AUC%extrap, Cmax, CL/F (mitapivat only), Tlast, Tmax, t½, and Vz/F (mitapivat only).
(§3) PK parameters were presented with a minimum of 3 significant figures. […]

[2] = Drug-drug interaction study Part 1: plasma PK after 20 mg mitapivat sulfate alone or with itraconazole; format: in vivo, human; details: for Total exposure in the presence of itraconazole compared to dosing of mitapivat sulfate alone: 20 mg mitapivat sulfate, 200 mg itraconazole; for AUC(0-inf) / AUC(0-t) / Cmax: both sexes, human, healthy subjects; for AUC(0-inf): read-out: AUC0-inf, Geometric LSM; for AUC(0-t): read-out: AUC0-t, Geometric LSM; for Cmax: read-out: Cmax, Geometric LSM
Description: as §1
On Day 1 of Treatment Period 1, a single oral dose of 20 mg mitapivat sulfate was administered. Serial blood samples for plasma assay of mitapivat concentrations and its CYP3A4 metabolite, referred to herein as the “Metabolite” (structure below),
[drawing 3] were collected from predose to 120 hours following administration of mitapivat sulfate. In Treatment Period 2, an oral dose of 200 mg itraconazole was administered once daily (QD) for 9 consecutive days (Day 1 through Day 9 of Treatment Period 2) with a single oral dose of 20 mg mitapivat sulfate coadministered on Day 5. Serial blood samples for plasma assay of mitapivat and the Metabolite concentrations were collected from predose to 120 hours following coadministration of mitapivat sulfate and itraconazole on Day 5.
In Treatment Period 1, mitapivat sulfate was administered orally with approximately 240 mL of water. In Treatment Period 2, on Days 1 to 4, itraconazole was administered alone immediately followed by approximately 220 mL of water, and on Day 5, itraconazole was administered first (no water) and was immediately followed by mitapivat sulfate administration with approximately 220 mL of water. Study drugs (mitapivat sulfate and itraconazole) were administered following an overnight fast of at least 10 hours on Day 1 of Treatment Period 1 (mitapivat sulfate only) and Day 5 of Treatment Period 2 (mitapivat sulfate and itraconazole), and subjects remained fasted for 4 hours after dosing. On all other dosing days, itraconazole was administered following a predose fast of at least 4 hours and subjects remained fasted for at least 2 hours after dosing.
Mitapivat sulfate (20 mg tablets) administered along with Itraconazole (also referred to as Sporanox®, 10 mg/mL oral solution, is considered as the test arm in this study. Mitapivat sulfate administered alone is considered as the reference arm in this study. In Period 1, a single oral dose of 20 mg mitapivat sulfate was administered orally with approximately 240 mL of water. In Period 2, on Day 5 (coadministration of itraconazole and mitapivat sulfate), 200 mg itraconazole (20 mL of 10 mg/mL oral solution) was administered first (no water) and was immediately followed by 20 mg mitapivat sulfate (1×20 mg tablet) administration with approximately 220 mL of water. On all other dosing days, itraconazole was administered alone immediately followed by approximately 220 mL of water. Each subject received 2 doses of mitapivat sulfate and 9 doses of itraconazole in Part 1.
as §2, §3

CYP2C8 = CYP2C8 (Homo sapiens, UniProt P10632); test: CYP-enzyme phenotyping using human liver microsomes and recombinant CYP enzymes; format: in vitro ADME; design: CYP-enzyme phenotyping using human liver microsomes and recombinant CYP enzymes; from tissue; host or cells: human liver microsomes
CYP3A4/5 = test: as above; format: in vitro ADME
CYP2C9 = CYP2C9 (Homo sapiens, UniProt P11712); test: as above; format: in vitro ADME; design: CYP-enzyme phenotyping using human liver microsomes and recombinant CYP enzymes; from tissue; host or cells: human liver microsomes
[3] = 50 mg mitapivat sulfate coadministered with 600 mg rifampin (Period 2)
[4] = 50 mg mitapivat sulfate given alone (Period 1)
[5] = 50 mg mitapivat sulfate oral alone (Reference)
[6] = 50 mg mitapivat sulfate oral on Day 8 + 600 mg rifampin QD Days 1-12 (Test)
[7] = plasma, 20 mg mitapivat sulfate oral alone (Reference)
[8] = plasma, 20 mg mitapivat sulfate oral on Day 5 + 200 mg itraconazole QD Days 1-9 (Test)

Chain of CYP2C8 (P10632 whole entry): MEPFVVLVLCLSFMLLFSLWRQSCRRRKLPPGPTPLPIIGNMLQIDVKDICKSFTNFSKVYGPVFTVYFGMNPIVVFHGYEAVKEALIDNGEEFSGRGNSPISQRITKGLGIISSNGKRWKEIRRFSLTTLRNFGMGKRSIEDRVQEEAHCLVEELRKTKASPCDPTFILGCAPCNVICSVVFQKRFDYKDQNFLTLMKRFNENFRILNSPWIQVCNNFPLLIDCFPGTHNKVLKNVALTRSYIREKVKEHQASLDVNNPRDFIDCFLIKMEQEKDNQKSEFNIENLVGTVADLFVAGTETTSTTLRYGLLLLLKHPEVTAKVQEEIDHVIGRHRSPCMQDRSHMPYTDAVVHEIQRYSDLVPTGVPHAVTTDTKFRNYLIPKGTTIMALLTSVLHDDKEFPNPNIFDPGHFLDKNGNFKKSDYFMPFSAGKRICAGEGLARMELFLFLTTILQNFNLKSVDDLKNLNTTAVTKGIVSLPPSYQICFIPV
Chain of CYP2C9 (P11712 whole entry): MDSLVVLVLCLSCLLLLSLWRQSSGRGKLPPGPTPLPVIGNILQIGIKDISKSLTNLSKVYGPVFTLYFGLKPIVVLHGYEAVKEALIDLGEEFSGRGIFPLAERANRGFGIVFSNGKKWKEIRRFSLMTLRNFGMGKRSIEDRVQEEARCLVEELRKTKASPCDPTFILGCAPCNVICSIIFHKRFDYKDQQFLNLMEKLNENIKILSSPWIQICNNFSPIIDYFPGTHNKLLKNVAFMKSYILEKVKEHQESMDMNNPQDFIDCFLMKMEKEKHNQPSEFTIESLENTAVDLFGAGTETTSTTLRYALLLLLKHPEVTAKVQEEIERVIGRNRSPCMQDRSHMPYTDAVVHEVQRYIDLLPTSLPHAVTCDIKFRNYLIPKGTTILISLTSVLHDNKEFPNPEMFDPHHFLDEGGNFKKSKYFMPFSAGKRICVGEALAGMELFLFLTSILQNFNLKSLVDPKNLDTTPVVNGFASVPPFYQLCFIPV

Row | Nominal time of peak arithmetic mean concentration [1, 3] [h] | Nominal time of peak arithmetic mean concentration [1, 4] | Total exposure in the presence of rifampin compared to dosing of mitapivat sulfate alone [1] | AUC(0-inf) [1, 5] [ng·h/mL] | AUC(0-t) [1, 5] [ng·h/mL] | Cmax [1, 5] [ng/mL] | AUC(0-inf) [1, 6] [ng·h/mL] | AUC(0-t) [1, 6] [ng·h/mL] | Cmax [1, 6] [ng/mL] | Total exposure in the presence of itraconazole compared to dosing of mitapivat sulfate alone [2] | AUC(0-inf) [2, 7] [ng·h/mL] | AUC(0-t) [2, 7] [ng·h/mL] | Cmax [2, 7] [ng/mL] | AUC(0-inf) [2, 8] [ng·h/mL] | AUC(0-t) [2, 8] [ng·h/mL] | Cmax [2, 8] [ng/mL] | Contribution of CYP2C8 to metabolism (CYP2C8) | Share of metabolism by CYP3A4/5 (primarily metabolized by) (CYP3A4/5) [%] | Contribution of CYP2C9 to metabolism (CYP2C9) | Delay in time to peak concentration ([2]; coadministered with itraconazole compared to administered alone, plasma) | SMILES
1 | ~1 | approximately 2 hour | decreased | 663 | 623 | 53.8 | 245 | 230 | 64.5 | increased | 216 | 197 | 18.8 | 339 | 300 | 9.11 |  |  |  |  | O=C(c1ccc(NS(=O)(=O)c2cccc3cccnc23)cc1)N1CCNCC1 [Metabolite]
2 | ~0.5 | approximately 1 hour | decreased | 5680 | 5560 | 1260 | 496 | 486 | 292 | increased | 1940 | 1880 | 412 | 9480 | 8860 | 704 | minor contributions | > 90 | minor contributions | approximately 2 hours | O=C(c1ccc(NS(=O)(=O)c2cccc3cccnc23)cc1)N1CCN(CC2CC2)CC1 [Mitapivat, N-(4-(4-(cyclopropylmethyl)piperazine-1-carbonyl)phenyl)quinoline-8-sulfonamide]
